Data as given in PubChem BioAssay AID1259407 (Chemical Carcinogenesis Research Information System (CCRIS), 2018).
Active and inactive are the calls of the source. No rule for the calls is given here.

System: CCRIS mutagenicity, Ames/micronucleus/aberration tests
Assay: CCRIS mutagenicity studies
[1] = Test System: AMES SALMONELLA TYPHIMURIUM, Strain/Indicator: TA98, Metabolic Activation: NONE, Method: PREINCUBATION
[2] = Test System: AMES SALMONELLA TYPHIMURIUM, Strain/Indicator: TA100, Metabolic Activation: NONE, Method: STANDARD PLATE
[3] = Test System: AMES SALMONELLA TYPHIMURIUM, Strain/Indicator: TA100, Metabolic Activation: NONE, Method: PREINCUBATION
[4] = Test System: AMES SALMONELLA TYPHIMURIUM, Strain/Indicator: TA100, Metabolic Activation: RAT, LIVER, S-9, AROCLOR 1254 (10% OR 20%), Method: STANDARD PLATE

O=[N+]([O-])c1cc2ccc3cccc4ccc(c1)c2c34
mutagenic call (Test System: AMES SALMONELLA TYPHIMURIUM, Strain/Indicator: TA96, Metabolic Activation: NONE, Method: STANDARD PLATE): active; positive
mutagenic call (Test System: AMES SALMONELLA TYPHIMURIUM, Strain/Indicator: TA97, Metabolic Activation: NONE, Method: STANDARD PLATE): active; positive
mutagenic call (Test System: AMES SALMONELLA TYPHIMURIUM, Strain/Indicator: TA98(1,8-DNP6), Metabolic Activation: NONE): active; positive
mutagenic call (Test System: AMES SALMONELLA TYPHIMURIUM, Strain/Indicator: TA98(1,8-DNP6), Metabolic Activation: NONE, Method: STANDARD PLATE): active; positive
mutagenic call (Test System: AMES SALMONELLA TYPHIMURIUM, Strain/Indicator: TA98(1,8-DNP6), Metabolic Activation: RAT, LIVER, S-9, AROCLOR 1254): inactive; negative
mutagenic call (Test System: AMES SALMONELLA TYPHIMURIUM, Strain/Indicator: TA98(NR), Metabolic Activation: NONE): active; positive
mutagenic call (Test System: AMES SALMONELLA TYPHIMURIUM, Strain/Indicator: TA98(NR), Metabolic Activation: NONE, Method: STANDARD PLATE): active; positive
mutagenic call (Test System: AMES SALMONELLA TYPHIMURIUM, Strain/Indicator: TA98(NR), Metabolic Activation: RAT, LIVER, S-9, AROCLOR 1254): active; positive
mutagenic call (Test System: AMES SALMONELLA TYPHIMURIUM, Strain/Indicator: TA98, Metabolic Activation: NONE): active; positive
mutagenic call [1]: active; positive
mutagenic call (Test System: AMES SALMONELLA TYPHIMURIUM, Strain/Indicator: TA98, Metabolic Activation: NONE, Method: STANDARD PLATE): active; positive
mutagenic call (Test System: AMES SALMONELLA TYPHIMURIUM, Strain/Indicator: TA98, Metabolic Activation: RAT, LIVER, S-9, AROCLOR 1254): active; positive
mutagenic call (Test System: AMES SALMONELLA TYPHIMURIUM, Strain/Indicator: TA98, Metabolic Activation: RAT, LIVER, S-9, PCB (10%), Method: PREINCUBATION): inactive; negative
mutagenic call (Test System: AMES SALMONELLA TYPHIMURIUM, Strain/Indicator: TA100(NR), Metabolic Activation: NONE): inactive; negative
mutagenic call (Test System: AMES SALMONELLA TYPHIMURIUM, Strain/Indicator: TA100(NR), Metabolic Activation: NONE, Method: STANDARD PLATE): inactive; negative
mutagenic call (Test System: AMES SALMONELLA TYPHIMURIUM, Strain/Indicator: TA100(NR), Metabolic Activation: RAT, LIVER, S-9, AROCLOR 1254): active; positive
mutagenic call (Test System: AMES SALMONELLA TYPHIMURIUM, Strain/Indicator: TA100, Metabolic Activation: NONE): active; positive
mutagenic call [2]: active; positive
mutagenic call (Test System: AMES SALMONELLA TYPHIMURIUM, Strain/Indicator: TA100, Metabolic Activation: RAT, LIVER, S-9, AROCLOR 1254): active; positive
mutagenic call (Test System: AMES SALMONELLA TYPHIMURIUM, Strain/Indicator: TA102, Metabolic Activation: NONE, Method: STANDARD PLATE): inactive; negative
mutagenic call (Test System: AMES SALMONELLA TYPHIMURIUM, Strain/Indicator: TA104, Metabolic Activation: NONE): active; positive
mutagenic call (Test System: AMES SALMONELLA TYPHIMURIUM, Strain/Indicator: TA104, Metabolic Activation: NONE, Method: STANDARD PLATE): active; positive
mutagenic call (Test System: AMES SALMONELLA TYPHIMURIUM, Strain/Indicator: TA104, Metabolic Activation: RAT, LIVER, S-9, AROCLOR 1254): active; positive
mutagenic call (Test System: AMES SALMONELLA TYPHIMURIUM, Strain/Indicator: TA1535, Metabolic Activation: NONE, Method: STANDARD PLATE): inactive; negative
mutagenic call (Test System: AMES SALMONELLA TYPHIMURIUM, Strain/Indicator: TA1538, Metabolic Activation: NONE, Method: STANDARD PLATE): active; positive
mutagenic call (Test System: AMES SALMONELLA TYPHIMURIUM, Strain/Indicator: TA7001, Metabolic Activation: NONE, Method: PREINCUBATION): active; positive
mutagenic call (Test System: AMES SALMONELLA TYPHIMURIUM, Strain/Indicator: TA7002, Metabolic Activation: NONE, Method: PREINCUBATION): active; positive
mutagenic call (Test System: AMES SALMONELLA TYPHIMURIUM, Strain/Indicator: TA7003, Metabolic Activation: NONE, Method: PREINCUBATION): active; positive
mutagenic call (Test System: AMES SALMONELLA TYPHIMURIUM, Strain/Indicator: TA7004, Metabolic Activation: NONE, Method: PREINCUBATION): active; positive
mutagenic call (Test System: AMES SALMONELLA TYPHIMURIUM, Strain/Indicator: TA7005, Metabolic Activation: NONE, Method: PREINCUBATION): active; positive
mutagenic call (Test System: AMES SALMONELLA TYPHIMURIUM, Strain/Indicator: TA7006, Metabolic Activation: NONE, Method: PREINCUBATION): active; positive

C=CC(=O)OCC(CO)(COC(=O)C=C)COC(=O)C=C
mutagenic call (End Point: In vivo micronucleus, Test System: Peripheral blood normochromatic erythrocytes, Species: Mouse, Strain/Sex: B6C3F1/Female): inactive; negative
mutagenic call (End Point: In vivo micronucleus, Test System: Peripheral blood normochromatic erythrocytes, Species: Mouse, Strain/Sex: B6C3F1/Male, Route: Dermal): inactive; negative
mutagenic call (End Point: In vivo micronucleus, Test System: Peripheral blood normochromatic erythrocytes, Species: Mouse, Strain/Sex: FVB.N/TgN (v-Ha-ras) Tg.AC hemizygous/Female, Route: Dermal): active; positive
mutagenic call (End Point: In vivo micronucleus, Test System: Peripheral blood normochromatic erythrocytes, Species: Mouse, Strain/Sex: FVB.N/TgN (v-Ha-ras) Tg.AC hemizygous/Male, Route: Dermal): inactive; negative (described as equivocal by ntp)
mutagenic call (Test System: AMES SALMONELLA TYPHIMURIUM, Strain/Indicator: TA98, Metabolic Activation: HAMSTER, LIVER, S-9, AROCLOR 1254 (10%), Method: PREINCUBATION): inactive; negative
mutagenic call [1]: inactive; negative
mutagenic call (Test System: AMES SALMONELLA TYPHIMURIUM, Strain/Indicator: TA98, Metabolic Activation: RAT, LIVER, S-9, AROCLOR 1254 (10%), Method: PREINCUBATION): inactive; negative
mutagenic call (Test System: AMES SALMONELLA TYPHIMURIUM, Strain/Indicator: TA100, Metabolic Activation: HAMSTER, LIVER, S-9, AROCLOR 1254 (10%), Method: PREINCUBATION): inactive; negative
mutagenic call [3]: inactive; negative
mutagenic call (Test System: AMES SALMONELLA TYPHIMURIUM, Strain/Indicator: TA100, Metabolic Activation: RAT, LIVER, S-9, AROCLOR 1254 (10%), Method: PREINCUBATION): inactive; negative
mutagenic call (Test System: AMES SALMONELLA TYPHIMURIUM, Strain/Indicator: TA1535, Metabolic Activation: HAMSTER, LIVER, S-9, AROCLOR 1254 (10%), Method: PREINCUBATION): inactive; negative
mutagenic call (Test System: AMES SALMONELLA TYPHIMURIUM, Strain/Indicator: TA1535, Metabolic Activation: NONE, Method: PREINCUBATION): inactive; negative
mutagenic call (Test System: AMES SALMONELLA TYPHIMURIUM, Strain/Indicator: TA1535, Metabolic Activation: RAT, LIVER, S-9, AROCLOR 1254 (10%), Method: PREINCUBATION): inactive; negative
mutagenic call (Test System: AMES SALMONELLA TYPHIMURIUM, Strain/Indicator: TA1537, Metabolic Activation: HAMSTER, LIVER, S-9, AROCLOR 1254 (10%), Method: PREINCUBATION): inactive; negative
mutagenic call (Test System: AMES SALMONELLA TYPHIMURIUM, Strain/Indicator: TA1537, Metabolic Activation: NONE, Method: PREINCUBATION): inactive; negative
mutagenic call (Test System: AMES SALMONELLA TYPHIMURIUM, Strain/Indicator: TA1537, Metabolic Activation: RAT, LIVER, S-9, AROCLOR 1254 (10%), Method: PREINCUBATION): inactive; negative
mutagenic call (Test System: MOUSE LYMPHOMA, Strain/Indicator: L5178Y (TK+/TK-), Metabolic Activation: NONE, Method: SUSPENSION/PLATE): active; positive

O=c1cc[nH]c2ccccc12
mutagenic call [2]: inactive; negative
mutagenic call [4]: inactive; negative

[O-][n+]1cccc2c1C=C[C@H]1O[C@@H]21
mutagenic call [2]: inactive; negative
mutagenic call [4]: inactive; negative

O=[N+]([O-])[O-].O=[N+]([O-])[O-].O=[N+]([O-])[O-].[Gd+3]
mutagenic call (Test System: UDS HUMAN LYMPHOCYTES, Strain/Indicator: THYMIDINE INCORPORATION, Metabolic Activation: NONE, Method: LIQUID SCINTILLATION COUNTING): active; positive

CC(=O)Nc1ccc(Oc2ccc(Cl)cc2Cl)cc1
mutagenic call [2]: inactive; negative
mutagenic call (Test System: AMES SALMONELLA TYPHIMURIUM, Strain/Indicator: TA100, Metabolic Activation: RAT, LIVER, S-9, KANECLOR 500, Method: STANDARD PLATE): active; positive

N#[N+]c1ccc([O-])cc1
mutagenic call [1]: active; positive
mutagenic call (Test System: AMES SALMONELLA TYPHIMURIUM, Strain/Indicator: TA98, Metabolic Activation: RAT, LIVER, S-9, POLYCHLORINATED BIPHENYLS, Method: PREINCUBATION): active; positive
mutagenic call [3]: active; positive
mutagenic call (Test System: AMES SALMONELLA TYPHIMURIUM, Strain/Indicator: TA100, Metabolic Activation: RAT, LIVER, S-9, POLYCHLORINATED BIPHENYLS, Method: PREINCUBATION): active; positive

Oc1cccc2c1[nH]c1ccccc12
mutagenic call (Test System: CHINESE HAMSTER OVARY, Strain/Indicator: CHO-K1-BH4 (HGPRT)/6-THIOGUANINE, Metabolic Activation: RAT, LIVER, S-9, AROCLOR (4%)): active; positive
